Experimental data from PubChem BioAssay (NCI).
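Test compounds were applied to cells in 96-well plates for 48 hours at 5 doses. GI50 is the concentration that inhibits growth by half. TGI is the concentration that stops growth completely.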

Experiments:
Test in all cases: DTP human tumour cell line panel, 48 h
OVCAR-4 ovarian = test system: OVCAR-4 ovarian
MCF7 breast = test system: MCF7 breast
BT-549 breast = test system: BT-549 breast
DU-145 prostate = test system: DU-145 prostate
MALME-3M melanoma = test system: MALME-3M melanoma
SF-539 CNS = test system: SF-539 CNS
COLO 205 colon = test system: COLO 205 colon
SK-MEL-28 melanoma = test system: SK-MEL-28 melanoma
SK-OV-3 ovarian = test system: SK-OV-3 ovarian
HOP-92 NSCLC = test system: HOP-92 NSCLC
HOP-62 NSCLC = test system: HOP-62 NSCLC
SK-MEL-5 melanoma = test system: SK-MEL-5 melanoma
MDA-MB-231 breast = test system: MDA-MB-231 breast
SNB-19 CNS = test system: SNB-19 CNS
UO-31 renal = test system: UO-31 renal
OVCAR-8 ovarian = test system: OVCAR-8 ovarian
HCT-116 colon = test system: HCT-116 colon
ACHN renal = test system: ACHN renal
EKVX NSCLC = test system: EKVX NSCLC
OVCAR-5 ovarian = test system: OVCAR-5 ovarian
HCT-15 colon = test system: HCT-15 colon
HS 578T breast = test system: HS 578T breast
HT29 colon = test system: HT29 colon
SW-620 colon = test system: SW-620 colon
A549 NSCLC = test system: A549 NSCLC
786-0 renal = test system: 786-0 renal
UACC-62 melanoma = test system: UACC-62 melanoma
SN12C renal = test system: SN12C renal
SK-MEL-2 melanoma = test system: SK-MEL-2 melanoma
UACC-257 melanoma = test system: UACC-257 melanoma
SR leukemia = test system: SR leukemia
TK-10 renal = test system: TK-10 renal
KM12 colon = test system: KM12 colon
IGROV1 ovarian = test system: IGROV1 ovarian
M14 melanoma = test system: M14 melanoma
PC-3 prostate = test system: PC-3 prostate
MDA-MB-435 = test system: MDA-MB-435
NCI-H460 lung = test system: NCI-H460 lung
RXF 393 renal = test system: RXF 393 renal
SNB-75 CNS = test system: SNB-75 CNS
SF-295 CNS = test system: SF-295 CNS
NCI-H226 lung = test system: NCI-H226 lung
U251 CNS = test system: U251 CNS
CCRF-CEM leukemia = test system: CCRF-CEM leukemia
SF-268 CNS = test system: SF-268 CNS
HCC-2998 colon = test system: HCC-2998 colon
T-47D breast = test system: T-47D breast
HL-60(TB) leukemia = test system: HL-60(TB) leukemia
K-562 leukemia = test system: K-562 leukemia
RPMI-8226 leukemia = test system: RPMI-8226 leukemia
MOLT-4 leukemia = test system: MOLT-4 leukemia
NCI/ADR-RES ovarian = test system: NCI/ADR-RES ovarian
LOX IMVI melanoma = test system: LOX IMVI melanoma
A498 renal = test system: A498 renal
NCI-H522 lung = test system: NCI-H522 lung
CAKI-1 renal = test system: CAKI-1 renal

CN(C)CCN(C)c1ccc2ncc(C#Cc3cncc(C(=O)Nc4ccc(CN5CCN(C)CC5)c(C(F)(F)F)c4)c3)n2n1
GI50 (OVCAR-4 ovarian): 0.933 µM
TGI (OVCAR-4 ovarian): 2.75 µM
GI50 (MCF7 breast): 0.564 µM
TGI (MCF7 breast): 1.47 µM
GI50 (BT-549 breast): 3.37 µM
TGI (BT-549 breast): 9.44 µM
GI50 (DU-145 prostate): 3.54 µM
TGI (DU-145 prostate): 9.9 µM
GI50 (MALME-3M melanoma): 2.7 µM
TGI (MALME-3M melanoma): 9.71 µM
GI50 (SF-539 CNS): 0.615 µM
TGI (SF-539 CNS): 1.32 µM
GI50 (COLO 205 colon): 1.21 µM
TGI (COLO 205 colon): 6.51 µM
GI50 (SK-MEL-28 melanoma): 7.58 µM
TGI (SK-MEL-28 melanoma): 14.3 µM
GI50 (SK-OV-3 ovarian): 8.01 µM
TGI (SK-OV-3 ovarian): 15 µM
GI50 (HOP-92 NSCLC): 1.71 µM
TGI (HOP-92 NSCLC): 8.31 µM
GI50 (HOP-62 NSCLC): 3.98 µM
TGI (HOP-62 NSCLC): 10.4 µM
GI50 (SK-MEL-5 melanoma): 5.08 µM
TGI (SK-MEL-5 melanoma): 10.9 µM
GI50 (MDA-MB-231 breast): 0.889 µM
TGI (MDA-MB-231 breast): 2.17 µM
GI50 (SNB-19 CNS): 4.75 µM
TGI (SNB-19 CNS): 10.8 µM
GI50 (UO-31 renal): 6.05 µM
TGI (UO-31 renal): 12.4 µM
GI50 (OVCAR-8 ovarian): 1.95 µM
TGI (OVCAR-8 ovarian): 7.06 µM
GI50 (HCT-116 colon): 1.57 µM
TGI (HCT-116 colon): 6.96 µM
GI50 (ACHN renal): 2.51 µM
TGI (ACHN renal): 8.72 µM
GI50 (EKVX NSCLC): 4.81 µM
TGI (EKVX NSCLC): 11.2 µM
GI50 (OVCAR-5 ovarian): 6.21 µM
TGI (OVCAR-5 ovarian): 12.9 µM
GI50 (HCT-15 colon): 1.14 µM
TGI (HCT-15 colon): 3.14 µM
GI50 (HS 578T breast): 1.68 µM
TGI (HS 578T breast): 9.75 µM
GI50 (HT29 colon): 0.822 µM
TGI (HT29 colon): 1.91 µM
GI50 (SW-620 colon): 0.949 µM
TGI (SW-620 colon): 2.27 µM
GI50 (A549 NSCLC): 0.947 µM
TGI (A549 NSCLC): 2.15 µM
GI50 (786-0 renal): 6.9 µM
TGI (786-0 renal): 13.5 µM
GI50 (UACC-62 melanoma): 8.21 µM
TGI (UACC-62 melanoma): 15.7 µM
GI50 (SN12C renal): 2.23 µM
TGI (SN12C renal): 7.79 µM
GI50 (SK-MEL-2 melanoma): 6.09 µM
TGI (SK-MEL-2 melanoma): 12.5 µM
GI50 (UACC-257 melanoma): 6.04 µM
TGI (UACC-257 melanoma): 12.3 µM
GI50 (SR leukemia): 0.614 µM
TGI (SR leukemia): 1.63 µM
GI50 (TK-10 renal): 12.1 µM
TGI (TK-10 renal): 19.5 µM
GI50 (KM12 colon): 0.386 µM
TGI (KM12 colon): 4.66 µM
GI50 (IGROV1 ovarian): 1.59 µM
TGI (IGROV1 ovarian): 5.7 µM
GI50 (M14 melanoma): 0.854 µM
TGI (M14 melanoma): 1.71 µM
GI50 (PC-3 prostate): 5.07 µM
TGI (PC-3 prostate): 11.2 µM
GI50 (MDA-MB-435): 2.17 µM
TGI (MDA-MB-435): 8.72 µM
GI50 (NCI-H460 lung): 0.891 µM
TGI (NCI-H460 lung): 1.69 µM
GI50 (RXF 393 renal): 0.876 µM
TGI (RXF 393 renal): 1.63 µM
GI50 (SNB-75 CNS): 0.879 µM
TGI (SNB-75 CNS): 6.57 µM
GI50 (SF-295 CNS): 0.801 µM
TGI (SF-295 CNS): 1.76 µM
GI50 (NCI-H226 lung): 1.23 µM
TGI (NCI-H226 lung): 8.28 µM
GI50 (U251 CNS): 0.883 µM
TGI (U251 CNS): 1.78 µM
GI50 (CCRF-CEM leukemia): 1.08 µM
TGI (CCRF-CEM leukemia): 2.91 µM
GI50 (SF-268 CNS): 5.58 µM
TGI (SF-268 CNS): 13.3 µM
GI50 (HCC-2998 colon): 1 µM
TGI (HCC-2998 colon): 2.08 µM
GI50 (T-47D breast): 7.83 µM
TGI (T-47D breast): 15.5 µM
GI50 (HL-60(TB) leukemia): 1.28 µM
TGI (HL-60(TB) leukemia): 2.39 µM
GI50 (K-562 leukemia): 0.0227 µM
TGI (K-562 leukemia): 0.787 µM
GI50 (RPMI-8226 leukemia): 0.955 µM
TGI (RPMI-8226 leukemia): 2.16 µM
GI50 (MOLT-4 leukemia): 0.863 µM
TGI (MOLT-4 leukemia): 2.62 µM
GI50 (NCI/ADR-RES ovarian): 2.13 µM
TGI (NCI/ADR-RES ovarian): 7.8 µM
GI50 (LOX IMVI melanoma): 0.75 µM
TGI (LOX IMVI melanoma): 1.42 µM
GI50 (A498 renal): 6.05 µM
TGI (A498 renal): 12.2 µM
GI50 (NCI-H522 lung): 5.08 µM
TGI (NCI-H522 lung): 11.8 µM
GI50 (CAKI-1 renal): 4 µM
TGI (CAKI-1 renal): 10.4 µM
